Type in all cases: in vivo
For assay [1], the system named is Setaria faberi (SETFA). Put plainly: Example A post-emergence herbicidal activity, glasshouse pot test. The following applies: 360 h, rate 125 g/ha, evaluated 15 days after spraying, read-out: Post-emergence activity SETFA (100=total damage to plant; 0=no damage to plant). The procedure:
(§1) Seeds of a variety of test species were sown in standard soil in pots. After cultivation for one day (pre-emergence) or after 10 days cultivation (post-emergence) under controlled conditions in a glasshouse, the plants were sprayed with an aqueous spray solution derived from the formulation of the technical active ingredient in 0.6 ml acetone and 45 ml formulation solution containing 10.6% Emulsogen EL (Registry number 61791-12-6), 42.2% N-methylpyrrolidone, 42.2% dipropylene glycol monomethyl ether (Registry number 34590-94-8) and 0.2% X-77 (Registry number 11097-66-8). The test plants were then grown in a greenhouse under optimum conditions until, 15 days later for post-emergence and 20 days for pre-emergence, the test was evaluated (100=total damage to plant; 0=no damage to plant).
(§2) Alopecurus myosuroides (ALOMY), Avena fatua (AVEFA), Lolium perenne (LOLPE), Setaria faberi (SETFA), Digitaria sanguinalis (DIGSA), Echinochloa crus-galli (ECHCG)

The test system of assay [2] is Alopecurus myosuroides (ALOMY). The assay is described as above. The following applies: 360 h, rate 125 g/ha, evaluated 15 days after spraying, read-out: Post-emergence activity ALOMY (100=total damage to plant; 0=no damage to plant). As for the experimental part:
as §1, §2

The test system of assay [3] is Digitaria sanguinalis (DIGSA). Described as above. The following applies: 360 h, rate 125 g/ha, evaluated 15 days after spraying, read-out: Post-emergence activity DIGSA (100=total damage to plant; 0=no damage to plant). As for the experimental part: as §1, §2
In assay [4] the test system is Echinochloa crus-galli (ECHCG). Described as above. The following applies: 360 h, rate 125 g/ha, evaluated 15 days after spraying, read-out: Post-emergence activity ECHCG (100=total damage to plant; 0=no damage to plant). As for the experimental part: as §1, §2
The subject of assay [5] is Avena fatua (AVEFA). Described as above. The following applies: 360 h, rate 125 g/ha, evaluated 15 days after spraying, read-out: Post-emergence activity AVEFA (100=total damage to plant; 0=no damage to plant). As for the experimental part:
as §1, §2

Assay [6] has as its system Lolium perenne (LOLPE). Described as above. The following applies: 360 h, rate 125 g/ha, evaluated 15 days after spraying, read-out: Post-emergence activity LOLPE (100=total damage to plant; 0=no damage to plant). The procedure: as §1, §2
In assay [7] the test system is Setaria faberi (SETFA). Put plainly: Example A pre-emergence herbicidal activity, glasshouse pot test. The following applies: 480 h, evaluated 20 days after spraying, read-out: Pre-emergence activity SETFA (100=total damage to plant; 0=no damage to plant); for pest or weed control at 250 g/ha: rate 250 g/ha; for pest or weed control at 500 g/ha: rate 500 g/ha. As for the experimental part:
as §1, §2

The subject of assay [8] is Alopecurus myosuroides (ALOMY). The description is as above. The following applies: 480 h, evaluated 20 days after spraying, read-out: Pre-emergence activity ALOMY (100=total damage to plant; 0=no damage to plant); for pest or weed control at 250 g/ha: rate 250 g/ha; for pest or weed control at 500 g/ha: rate 500 g/ha. As for the experimental part: as §1, §2
The test system of assay [9] is Digitaria sanguinalis (DIGSA). Described as above. The following applies: 480 h, evaluated 20 days after spraying, read-out: Pre-emergence activity DIGSA (100=total damage to plant; 0=no damage to plant); for pest or weed control at 250 g/ha: rate 250 g/ha; for pest or weed control at 500 g/ha: rate 500 g/ha. The procedure:
as §1, §2

Assay [10] deals with Echinochloa crus-galli (ECHCG). The assay is described as above. The following applies: 480 h, evaluated 20 days after spraying, read-out: Pre-emergence activity ECHCG (100=total damage to plant; 0=no damage to plant); for pest or weed control at 250 g/ha: rate 250 g/ha; for pest or weed control at 500 g/ha: rate 500 g/ha. As for the experimental part: as §1, §2
The test system of assay [11] is Avena fatua (AVEFA). Described as above. The following applies: 480 h, evaluated 20 days after spraying, read-out: Pre-emergence activity AVEFA (100=total damage to plant; 0=no damage to plant); for pest or weed control at 250 g/ha: rate 250 g/ha; for pest or weed control at 500 g/ha: rate 500 g/ha. As for the experimental part:
as §1, §2

Assay [12] relates to Lolium perenne (LOLPE). The description is as above. The following applies: 480 h, evaluated 20 days after spraying, read-out: Pre-emergence activity LOLPE (100=total damage to plant; 0=no damage to plant); for pest or weed control at 250 g/ha: rate 250 g/ha; for pest or weed control at 500 g/ha: rate 500 g/ha. The procedure:
as §1, §2

The test system of assay [13] is Setaria faberi (SETFA). Put plainly: Example B pre-emergence herbicidal activity, glasshouse pot test. The following applies: 312 h, rate 250 g/ha, evaluated after 13 days, read-out: Pre-emergence activity SETFA (100=total damage to plant; 0=no damage to plant). In outline:
(§3)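 Herbicidal effect was judged 13 days after treatment as percent-style damage (100 = total kill). Seeds in standard soil had grown 1 day (pre) or 8 days (post) in a 24/16 °C, 14 h light, 65% humidity glasshouse before spraying with compound in acetone/water (50:50) containing 0.5% Tween 20.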

Assay [14] deals with Amaranthus retroflexus (AMARE). The description is as above. The following applies: 312 h, rate 250 g/ha, evaluated after 13 days, read-out: Pre-emergence activity AMARE (100=total damage to plant; 0=no damage to plant). In outline:
as §3

In assay [15] the test system is Solanum nigrum (SOLNI). The description is as above. The following applies: 312 h, rate 250 g/ha, evaluated after 13 days, read-out: Pre-emergence activity SOLNI (100=total damage to plant; 0=no damage to plant). Put shortly:
as §3

Assay [16] deals with Alopecurus myosuroides (ALOMY). The assay is described as above. The following applies: 312 h, rate 250 g/ha, evaluated after 13 days, read-out: Pre-emergence activity ALOMY (100=total damage to plant; 0=no damage to plant). Put shortly:
as §3

The subject of assay [17] is Echinochloa crus-galli (ECHCG). The description is as above. The following applies: 312 h, rate 250 g/ha, evaluated after 13 days, read-out: Pre-emergence activity ECHCG (100=total damage to plant; 0=no damage to plant). Put shortly: as §3
For assay [18], the system named is Avena fatua (AVEFA). The assay is described as above. The following applies: 312 h, rate 250 g/ha, evaluated after 13 days, read-out: Pre-emergence activity AVEFA (100=total damage to plant; 0=no damage to plant). Put shortly:
as §3

The subject of assay [19] is Setaria faberi (SETFA). Briefly: Example B post-emergence herbicidal activity, glasshouse pot test. The following applies: 312 h, rate 250 g/ha, evaluated after 13 days, read-out: Post-emergence activity SETFA (100=total damage to plant; 0=no damage to plant). Put shortly:
as §3

Assay [20] concerns Amaranthus retroflexus (AMARE). The assay is described as above. The following applies: 312 h, rate 250 g/ha, evaluated after 13 days, read-out: Post-emergence activity AMARE (100=total damage to plant; 0=no damage to plant). Put shortly:
as §3

The subject of assay [21] is Solanum nigrum (SOLNI). The description is as above. The following applies: 312 h, rate 250 g/ha, evaluated after 13 days, read-out: Post-emergence activity SOLNI (100=total damage to plant; 0=no damage to plant). In outline:
as §3

Assay [22] deals with Alopecurus myosuroides (ALOMY). Described as above. The following applies: 312 h, rate 250 g/ha, evaluated after 13 days, read-out: Post-emergence activity ALOMY (100=total damage to plant; 0=no damage to plant). Put shortly: as §3
Assay [23] has as its system Echinochloa crus-galli (ECHCG). Described as above. The following applies: 312 h, rate 250 g/ha, evaluated after 13 days, read-out: Post-emergence activity ECHCG (100=total damage to plant; 0=no damage to plant). Put shortly:
as §3

For assay [24], the system named is Avena fatua (AVEFA). Described as above. The following applies: 312 h, rate 250 g/ha, evaluated after 13 days, read-out: Post-emergence activity AVEFA (100=total damage to plant; 0=no damage to plant). In outline: as §3

On to `CCc1ccc(-c2ccc(Cl)cc2)cc1C1=C(O)C(C)(CC)OC(C)(CC)C1=O` (stereo not drawn) [Compound A-35], for which the pest or weed control at 125 g/ha stood at 80% in assay [1]; 80% in assay [2]; 80% in assay [3]; 100% in assay [4]; 50% in [5]; 70% in assay [6]. For the same compound, the pest or weed control at 250 g/ha stood at 100% in assay [7]; 70% in assay [8]; 80% in [9]; 100% in [10]; 70% in [11]; 80% in assay [12].
As for `Cc1ccc(-c2ccc(Cl)cc2)cc1C1=C(O)COC(C)(C)C1=O` (single isomer, unassigned) [Compound A-1], the pest or weed control at 125 g/ha in [1] amounted to 50%; in assay [2] it was 10%; in assay [3], 0%; in [4], 70%; in assay [5] it was 0%; in assay [6], 80%. Also, the pest or weed control at 500 g/ha amounted to 70% in assay [7]; 40% in assay [8]; 70% in assay [9]; 50% in assay [10]; 10% in assay [11]; 10% in assay [12].
`COC(=O)OC1=C(c2cc(-c3ccc(Cl)cc3)ccc2C)C(=O)C(C)(C)OC1` [Compound D-5]: the pest or weed control at 125 g/ha in assay [1] was 70%; in assay [2] it was 10%; in assay [3], 20%; in [4], 60%; in [5], 40%; in assay [6], 40%. In addition, the pest or weed control at 500 g/ha turned out to be 20% in [7]; 0% in [8]; 60% in [9]; 50% in assay [10]; 20% in assay [11]; 0% in assay [12].
As for `Cc1ccc(-c2ccc(Cl)c(Cl)c2)cc1C1=C(O)C(C)(C)OC(C)(C)C1=O` [Compound A-48], the pest or weed control at 125 g/ha in [1] came out at 40%; in assay [2] it was 70%; in [3], 40%; in assay [4], 40%; in assay [5] it was 40%; in [6] it was 0%. Also, the pest or weed control at 250 g/ha in assay [7] is 60%; in assay [8], 30%; in [9], 60%; in assay [10] it was 100%; in [11], 10%; in assay [12], 0%.
As to `CCc1ccc(-c2ccc(Cl)cc2Cl)cc1C1=C(O)C(C)(C)OC(C)(C)C1=O` [Compound A-45], the pest or weed control at 125 g/ha in assay [1] stood at 80%; in [2], 20%; in assay [3], 100%; in [4] it was 100%; in assay [5], 70%; in assay [6], 70%. For the same compound, the pest or weed control at 250 g/ha in assay [7] came out at 90%; in assay [8], 50%; in [9], 100%; in assay [10] it was 70%; in assay [11] it was 50%; in [12], 80%.
For `Cc1ccc(-c2ccc(Cl)c(F)c2)cc1C1=C(O)C(C)(C)C(=O)C(C)(C)C1=O` [Compound B-23], the pest or weed control at 250 g/ha in assay [13] came to 0%; in [14], 0%; in assay [15], 0%; in assay [16] it was 0%; in assay [17] it was 10%; in assay [18], 0%. Besides, the pest or weed control at 250 g/ha in assay [19] was 70%; in assay [20] it was 0%; in assay [21] it was 0%; in assay [22] it was 30%; in assay [23] it was 60%; in assay [24], 0%.

The values are drawn from US8680012B2, “4-phenyl-pyrane-3,5-diones,4-phenyl-thiopyrane-3,6-diones and cyclohexanetriones as novel herbicides” (Syngenta Crop Protection LLC, priority 2006, dated 2014).
